Reference: ChEMBL document CHEMBL1201862, “PubChem BioAssay data set” (2004)
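Where inhibition never reached the appropriate level, the endpoint shown equals the highest concentration tested. Otherwise, values were interpolated linearly from a five-concentration, 48-hour dose response in 96-well plates. GI50 marks 50% less growth.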 Active and inactive are the calls of the source. No stated cut-off is given here; in the data, active = GI50 up to about 1.1 µM and inactive = higher.

Key:
Assay in all cases: growth of human tumour cells (NCI), 48 h
SF-539 = test system: SF-539
786-0 = test system: 786-0
DU-145 = test system: DU-145
MDA-MB-231 = test system: MDA-MB-231
SN12C = test system: SN12C
SR = test system: SR
PC-3 = test system: PC-3
RPMI-8226 = test system: RPMI-8226
CCRF-CEM = test system: CCRF-CEM
HOP-62 = test system: HOP-62
NCI-H23 = test system: NCI-H23
HOP-92 = test system: HOP-92
BT-549 = test system: BT-549
HT-29 = test system: HT-29
K562 = test system: K562
OVCAR-3 = test system: OVCAR-3
UACC-257 = test system: UACC-257
MDA-MB-435 = test system: MDA-MB-435
UO-31 = test system: UO-31
SW-620 = test system: SW-620
SF-268 = test system: SF-268
Malme-3M = test system: Malme-3M
MCF7 = test system: MCF7
MDA-N = test system: MDA-N
M14 = test system: M14
SNB-19 = test system: SNB-19
MOLT-4 = test system: MOLT-4
CAKI-1 = test system: CAKI-1
OVCAR-8 = test system: OVCAR-8
HL-60 = test system: HL-60
OVCAR-4 = test system: OVCAR-4
A549 = test system: A549
T47D = test system: T47D
COLO 205 = test system: COLO 205
HCT-15 = test system: HCT-15
IGROV-1 = test system: IGROV-1
A498 = test system: A498
HCC 2998 = test system: HCC 2998
NCI-H460 = test system: NCI-H460
SF-295 = test system: SF-295
NCI-H226 = test system: NCI-H226
TK-10 = test system: TK-10
SK-OV-3 = test system: SK-OV-3
U-251 = test system: U-251
SK-MEL-2 = test system: SK-MEL-2
ACHN = test system: ACHN
KM12 = test system: KM12
NCI/ADR-RES = test system: NCI/ADR-RES
UACC-62 = test system: UACC-62
HCT-116 = test system: HCT-116
Hs-578T = test system: Hs-578T
LOX IMVI = test system: LOX IMVI
SK-MEL-28 = test system: SK-MEL-28
RXF 393 = test system: RXF 393
NCI-H522 = test system: NCI-H522
OVCAR-5 = test system: OVCAR-5
SK-MEL-5 = test system: SK-MEL-5
EKVX = test system: EKVX

For `O=C1C[C@@H](Sc2ccccc2)C2(OCCO2)[C@H]2ON3CCC[C@@H]3[C@@H]12`, which GI50 (SF-539) is on record?
Its GI50 is 2.87 µM (inactive).

And the GI50 (786-0)?
Its GI50 is 2.07 µM (inactive).

And the GI50 (DU-145)?
Its GI50 is 2.55 µM (inactive).

What about the GI50 (MDA-MB-231) of the same compound?
The GI50 was 3.06 µM (inactive).

And the GI50 (SN12C)?
The GI50 was 2.33 µM (inactive).

And the GI50 (SR)?
Its GI50 is 1.3 µM (inactive).

What about the GI50 (PC-3) of the same compound?
The GI50 was 4.55 µM (inactive).

What about the GI50 (RPMI-8226) of the same compound?
Its GI50 is 2.85 µM (inactive).

And the GI50 (CCRF-CEM)?
The GI50 was 0.782 µM (active).

And the GI50 (HOP-62)?
The GI50 was 3.16 µM (inactive).

What about the GI50 (NCI-H23) of the same compound?
The GI50 was 4.61 µM (inactive).

What about the GI50 (HOP-92) of the same compound?
Its GI50 is 3.89 µM (inactive).

What about the GI50 (BT-549) of the same compound?
The GI50 was 6.53 µM (inactive).

And the GI50 (HT-29)?
Its GI50 is 1.17 µM (inactive).

And the GI50 (K562)?
The GI50 was 2.56 µM (inactive).

And the GI50 (OVCAR-3)?
Its GI50 is 1.68 µM (inactive).

What about the GI50 (UACC-257) of the same compound?
Its GI50 is 13.4 µM (inactive).

And the GI50 (MDA-MB-435)?
The GI50 was 2.58 µM (inactive).

And the GI50 (UO-31)?
Its GI50 is 1.94 µM (inactive).

What about the GI50 (SW-620) of the same compound?
The GI50 was 2.14 µM (inactive).

And the GI50 (SF-268)?
Its GI50 is 2.95 µM (inactive).

And the GI50 (Malme-3M)?
Its GI50 is 1.82 µM (inactive).

And the GI50 (MCF7)?
The GI50 was 3.33 µM (inactive).

And the GI50 (MDA-N)?
Its GI50 is 2.7 µM (inactive).

What about the GI50 (M14) of the same compound?
Its GI50 is 2.12 µM (inactive).

What about the GI50 (SNB-19) of the same compound?
Its GI50 is 14.8 µM (inactive).

What about the GI50 (MOLT-4) of the same compound?
The GI50 was 1.04 µM (active).

What about the GI50 (CAKI-1) of the same compound?
Its GI50 is 4.42 µM (inactive).

What about the GI50 (OVCAR-8) of the same compound?
Its GI50 is 2.03 µM (inactive).

And the GI50 (HL-60)?
Its GI50 is 1.38 µM (inactive).

And the GI50 (OVCAR-4)?
Its GI50 is 5 µM (inactive).

And the GI50 (A549)?
Its GI50 is 10.3 µM (inactive).

What about the GI50 (T47D) of the same compound?
Its GI50 is 2.83 µM (inactive).

And the GI50 (COLO 205)?
Its GI50 is 2.48 µM (inactive).

What about the GI50 (HCT-15) of the same compound?
The GI50 was 2.44 µM.

And the GI50 (IGROV-1)?
Its GI50 is 2.24 µM (inactive).

And the GI50 (A498)?
The GI50 was 10.9 µM (inactive).

What about the GI50 (HCC 2998) of the same compound?
The GI50 was 8 µM (inactive).

And the GI50 (NCI-H460)?
Its GI50 is 4.36 µM (inactive).

What about the GI50 (SF-295) of the same compound?
The GI50 was 11.4 µM (inactive).

What about the GI50 (NCI-H226) of the same compound?
Its GI50 is 7.67 µM (inactive).

What about the GI50 (TK-10) of the same compound?
Its GI50 is 6.71 µM (inactive).

And the GI50 (SK-OV-3)?
Its GI50 is 13.2 µM (inactive).

And the GI50 (U-251)?
The GI50 was 3.33 µM (inactive).

What about the GI50 (SK-MEL-2) of the same compound?
Its GI50 is 3.72 µM (inactive).

What about the GI50 (ACHN) of the same compound?
The GI50 was 3.4 µM (inactive).

What about the GI50 (KM12) of the same compound?
Its GI50 is 4.4 µM (inactive).

And the GI50 (NCI/ADR-RES)?
Its GI50 is 3.31 µM (inactive).

What about the GI50 (UACC-62) of the same compound?
The GI50 was 10.9 µM (inactive).

And the GI50 (HCT-116)?
The GI50 was 1.55 µM (inactive).

And the GI50 (Hs-578T)?
The GI50 was 2.77 µM (inactive).

What about the GI50 (LOX IMVI) of the same compound?
Its GI50 is 3.1 µM (inactive).

What about the GI50 (SK-MEL-28) of the same compound?
Its GI50 is 7.83 µM (inactive).

`C[C@H]1CC[C@@H]2[C@@H](C)[C@H]3[C@H](C[C@H]4[C@@H]5CC=C6C[C@@H](O)CC[C@]6(C)[C@H]5CC[C@]34C)N2C1` was tested. Which GI50 (SF-539) did it give?
Its GI50 is 65.9 µM (inactive).

And the GI50 (786-0)?
Its GI50 is 30.4 µM (inactive).

And the GI50 (DU-145)?
The GI50 was > 100 µM (inactive).

What about the GI50 (MDA-MB-231) of the same compound?
The GI50 was 39.4 µM (inactive).

What about the GI50 (SN12C) of the same compound?
Its GI50 is > 100 µM (inactive).

And the GI50 (SR)?
Its GI50 is 22.6 µM (inactive).

What about the GI50 (PC-3) of the same compound?
The GI50 was 50.9 µM (inactive).

What about the GI50 (RPMI-8226) of the same compound?
Its GI50 is 26.3 µM (inactive).

What about the GI50 (CCRF-CEM) of the same compound?
Its GI50 is 32.5 µM (inactive).

And the GI50 (HOP-62)?
Its GI50 is 31.4 µM (inactive).

What about the GI50 (NCI-H23) of the same compound?
Its GI50 is 88.5 µM (inactive).

And the GI50 (HOP-92)?
Its GI50 is 12.6 µM (inactive).

What about the GI50 (BT-549) of the same compound?
Its GI50 is 93.1 µM (inactive).

What about the GI50 (HT-29) of the same compound?
Its GI50 is 18.6 µM (inactive).

And the GI50 (OVCAR-3)?
The GI50 was > 100 µM (inactive).

And the GI50 (UACC-257)?
The GI50 was 45.1 µM (inactive).

And the GI50 (MDA-MB-435)?
The GI50 was 89.7 µM (inactive).

What about the GI50 (RXF 393) of the same compound?
Its GI50 is 19.4 µM (inactive).

And the GI50 (UO-31)?
Its GI50 is 60.5 µM (inactive).

And the GI50 (SW-620)?
Its GI50 is 75.2 µM (inactive).

What about the GI50 (SF-268) of the same compound?
Its GI50 is > 100 µM (inactive).

What about the GI50 (Malme-3M) of the same compound?
Its GI50 is > 100 µM (inactive).

What about the GI50 (NCI-H522) of the same compound?
Its GI50 is 42.6 µM (inactive).

What about the GI50 (MCF7) of the same compound?
The GI50 was 38.5 µM (inactive).

What about the GI50 (MDA-N) of the same compound?
Its GI50 is > 100 µM (inactive).

What about the GI50 (M14) of the same compound?
The GI50 was 74 µM (inactive).

What about the GI50 (SNB-19) of the same compound?
The GI50 was 97.9 µM (inactive).

And the GI50 (MOLT-4)?
Its GI50 is 24.5 µM (inactive).

And the GI50 (CAKI-1)?
Its GI50 is 41.1 µM (inactive).

And the GI50 (OVCAR-8)?
The GI50 was 32.5 µM (inactive).

What about the GI50 (HL-60) of the same compound?
The GI50 was 17.5 µM (inactive).

And the GI50 (OVCAR-4)?
Its GI50 is 32.4 µM (inactive).

What about the GI50 (A549) of the same compound?
The GI50 was > 100 µM (inactive).

And the GI50 (T47D)?
Its GI50 is 86.9 µM (inactive).

And the GI50 (OVCAR-5)?
Its GI50 is > 100 µM (inactive).

What about the GI50 (COLO 205) of the same compound?
The GI50 was 16.3 µM (inactive).

And the GI50 (HCT-15)?
Its GI50 is > 100 µM.

And the GI50 (IGROV-1)?
Its GI50 is 27.9 µM (inactive).

And the GI50 (A498)?
The GI50 was 13.6 µM (inactive).

And the GI50 (SK-MEL-5)?
Its GI50 is 38.3 µM (inactive).

What about the GI50 (HCC 2998) of the same compound?
The GI50 was 97.1 µM (inactive).

What about the GI50 (NCI-H460) of the same compound?
Its GI50 is 37.9 µM (inactive).

And the GI50 (SF-295)?
The GI50 was 40.6 µM (inactive).

And the GI50 (NCI-H226)?
The GI50 was 14.6 µM (inactive).

What about the GI50 (TK-10) of the same compound?
Its GI50 is 33 µM (inactive).

And the GI50 (SK-OV-3)?
Its GI50 is > 100 µM (inactive).

And the GI50 (U-251)?
The GI50 was 31.8 µM (inactive).

And the GI50 (SK-MEL-2)?
The GI50 was > 100 µM (inactive).

And the GI50 (ACHN)?
Its GI50 is 59.8 µM (inactive).

What about the GI50 (KM12) of the same compound?
The GI50 was 30.3 µM (inactive).

What about the GI50 (NCI/ADR-RES) of the same compound?
The GI50 was 54.7 µM (inactive).

And the GI50 (EKVX)?
The GI50 was 36.4 µM (inactive).

What about the GI50 (UACC-62) of the same compound?
Its GI50 is 43 µM (inactive).

What about the GI50 (HCT-116) of the same compound?
The GI50 was 36.4 µM (inactive).

What about the GI50 (Hs-578T) of the same compound?
The GI50 was 33.3 µM (inactive).

And the GI50 (LOX IMVI)?
Its GI50 is 36.1 µM (inactive).

And the GI50 (SK-MEL-28)?
The GI50 was 47.1 µM (inactive).
